Data published in ChEMBL document CHEMBL3259563, “The discovery of potent and selective non-steroidal glucocorticoid receptor modulators, suitable for inhalation” (Bioorg Med Chem Lett, 2014).

Key:
[1] = biological target: T1, Glucocorticoid receptor (Homo sapiens, UniProt P04150)
T1 sequence (P04150 whole entry): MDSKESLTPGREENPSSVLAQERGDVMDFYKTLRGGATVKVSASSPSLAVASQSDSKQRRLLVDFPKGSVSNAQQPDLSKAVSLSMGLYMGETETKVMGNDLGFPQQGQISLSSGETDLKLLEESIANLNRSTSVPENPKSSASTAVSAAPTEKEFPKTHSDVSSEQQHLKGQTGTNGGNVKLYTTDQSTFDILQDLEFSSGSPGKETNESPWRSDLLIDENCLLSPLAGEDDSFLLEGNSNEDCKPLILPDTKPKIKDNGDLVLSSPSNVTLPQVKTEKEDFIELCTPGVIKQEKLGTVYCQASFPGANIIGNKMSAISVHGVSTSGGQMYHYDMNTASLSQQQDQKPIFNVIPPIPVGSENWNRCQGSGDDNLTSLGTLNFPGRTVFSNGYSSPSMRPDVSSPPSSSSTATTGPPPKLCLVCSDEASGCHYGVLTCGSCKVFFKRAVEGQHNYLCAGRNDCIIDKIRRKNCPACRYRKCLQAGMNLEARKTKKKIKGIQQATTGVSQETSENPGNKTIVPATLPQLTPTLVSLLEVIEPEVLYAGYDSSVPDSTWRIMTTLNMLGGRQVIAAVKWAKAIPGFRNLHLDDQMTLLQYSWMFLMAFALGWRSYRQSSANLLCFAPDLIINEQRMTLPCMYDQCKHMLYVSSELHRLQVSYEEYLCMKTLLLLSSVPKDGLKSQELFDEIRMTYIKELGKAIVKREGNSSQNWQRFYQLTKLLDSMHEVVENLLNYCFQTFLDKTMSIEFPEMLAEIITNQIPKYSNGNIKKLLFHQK
Description: Agonist activity at glucocorticoid receptor in human Chago K1 cells assessed as gene transrepression by Lac-Z reporter gene assay

[2] = biological target: T1, Glucocorticoid receptor; remark: listed apart in the source
Description: Agonist activity at glucocorticoid receptor in human PBMC assessed as inhibition of LPS-stimulated TNF-alpha release

[3] = biological target: T1, Glucocorticoid receptor; remark: listed apart in the source
Description: Binding affinity to human glucocorticoid receptor by fluorescence polarization assay

[4] = Lipophilicity, log D of the compound at pH 7.4; type: physicochemical; conditions: buffer
[5] = tested on: Rattus norvegicus; assay: Antiinflammatory activity in rat assessed as inhibition of LPS-induced lung edema at 30 ug/kg, administered intratracheally 2 hrs prior to LPS challenge measured after 4 hrs relative to control; type: functional; conditions: inhaled or nasal
[6] = tested on: Rattus norvegicus; assay: Antiinflammatory activity in rat assessed as inhibition of LPS-induced lung edema at 100 ug/kg, administered intratracheally 2 hrs prior to LPS challenge measured after 4 hrs relative to control; type: functional; conditions: inhaled or nasal
[7] = tested on: Mus musculus; assay: Antiinflammatory activity in mouse acute cigarette smoke model assessed as inhibition of neutrophil influx to broncho-alveolar lavage fluid at 30 ug/kg, administered intratracheally 30 mins prior to first cigarette smoke challenge every day for 4 days measured after 24 hrs post last cigarette smoke challenge relative to control; conditions: inhaled or nasal
[8] = tested on: Rattus norvegicus; assay: Antiinflammatory activity in rat assessed as inhibition of LPS-induced leukocyte influx to broncho-alveolar lavage fluid at 100 ug/kg, administered intratracheally 2 hrs prior to LPS challenge measured after 4 hrs relative to control; type: functional; conditions: inhaled or nasal
[9] = tested on: Rattus norvegicus; assay: Antiinflammatory activity in rat assessed as inhibition of LPS-induced leukocyte influx to broncho-alveolar lavage fluid at 10 ug/kg, administered intratracheally 2 hrs prior to LPS challenge measured after 4 hrs relative to control; type: functional; conditions: inhaled or nasal
[10] = tested on: Rattus norvegicus; assay: Antiinflammatory activity in rat assessed as inhibition of LPS-induced leukocyte influx to broncho-alveolar lavage fluid at 30 ug/kg, administered intratracheally 2 hrs prior to LPS challenge measured after 4 hrs relative to control; type: functional; conditions: inhaled or nasal
[11] = tested on: Rattus norvegicus; assay: Antiinflammatory activity in rat assessed as inhibition of LPS-induced lung edema at 10 ug/kg, administered intratracheally 2 hrs prior to LPS challenge measured after 4 hrs relative to control; type: functional; conditions: inhaled or nasal

| Structure (SMILES) | IC50 [1] [nM] | IC50 [2] [nM] | IC50 [3] [nM] | also measured |
| --- | --- | --- | --- | --- |
| Cc1cc(C)c(S(=O)(=O)NC(COc2cccc3c2cnn3-c2ccc(F)cc2)C(F)(F)F)c(C)c1 (racemic) | 14 | 36 | 3.8 | – |
| Cc1cc(C)c(S(=O)(=O)N[C@@H](C)CCc2ccccc2)c(C)c1 | – | – | 55 | – |
| C[C@@H](COc1cccc2ncccc12)NS(=O)(=O)c1c(Cl)cc(Cl)cc1Cl | 2400 | – | 80 | – |
| Cc1cc(C)c(S(=O)(=O)N[C@@H](C)CNc2ccc3cnccc3c2)c(C)c1 | – | – | 10000 | – |
| Cc1nn(C2CCCC2)c(C)c1S(=O)(=O)N[C@@H](C)COc1cccc2cnccc12 | – | – | 32 | logD [4]: 3.5 |
| Cc1cc(C)c(S(=O)(=O)N[C@@H](C)CNc2cccc3c2cnn3-c2ccccc2)c(C)c1 | 1.5 | 1.6 | – | – |
| Cc1cc(C)c(S(=O)(=O)N[C@@H](C)CNc2cccc3c2cnn3-c2cccnc2)c(C)c1 | 2.6 | 2 | – | – |
| Cc1cc(C)c(S(=O)(=O)N[C@@H](C)CNc2ccc3ncccc3c2)c(C)c1 | – | – | 10000 | – |
| COc1ccccc1S(=O)(=O)N[C@@H](C)COc1cccc2ncccc12 | – | – | > 10000 | – |
| Cc1cc(C)c(S(=O)(=O)N[C@@H](C)CNc2cccc3c2cnn3-c2ccc(F)c(C)c2)c(C)c1 | 14 | 23 | 4.1 | – |
| Cc1cc(Cl)cc(Cl)c1S(=O)(=O)N[C@@H](C)COc1cccc2ncccc12 | – | – | 220 | – |
| Cc1nn(C2CCCC2)c(C)c1S(=O)(=O)N[C@@H](C)CNc1cccc2c1cnn2-c1cncnc1 | 43 | – | – | – |
| Cc1cc(C)c(S(=O)(=O)N[C@@H](C)CNc2ccc(C)c3ncccc23)c(C)c1 | 1100 | – | – | – |
| Cc1nn(C2CCCC2)c(C)c1S(=O)(=O)N[C@@H](C)CNc1cccc2c1cnn2-c1ccc(F)cc1 | 9.7 | – | – | – |
| CCC(=O)O[C@]1(C(=O)SCF)[C@H](C)C[C@H]2[C@@H]3C[C@H](F)C4=CC(=O)C=C[C@]4(C)[C@@]3(F)[C@@H](O)C[C@@]21C [FLUTICASONE PROPIONATE] | – | – | – | inhibition in vivo at 0.03 mg/kg [5]: 78%; inhibition in vivo at 0.1 mg/kg [6]: 116%; inhibition in vivo at 0.03 mg/kg [7]: 0%; inhibition in vivo at 0.1 mg/kg [8]: 94%; inhibition in vivo at 0.01 mg/kg [9]: 84%; inhibition in vivo at 0.03 mg/kg [10]: 92%; inhibition in vivo at 0.01 mg/kg [11]: 64% |
| C[C@@H](COc1cccc2ncccc12)NS(=O)(=O)c1ccccc1 | – | – | > 10000 | – |
| Cc1cc(C)c(S(=O)(=O)N[C@@H](C)COc2c(C)cccc2C)c(C)c1 | – | – | 85 | – |
| Cc1cc(C)c(S(=O)(=O)N[C@@H](C)CNc2cccc3[nH]ncc23)c(C)c1 | 760 | – | – | – |
| Cc1cc(C)c(S(=O)(=O)N[C@@H](C)CCc2cccc3c2cnn3-c2ccc(F)cc2)c(C)c1 | 23 | 12 | – | – |

| Structure (SMILES) | IC50 [1] [nM] | IC50 [2] [nM] | IC50 [3] [nM] | also measured |
| --- | --- | --- | --- | --- |
| Cc1cc(C)c(S(=O)(=O)N[C@@H](C)COc2cccc3ncccc23)c(C)c1 | 960 | – | 240 | – |
| Cc1cc(C)c(S(=O)(=O)N[C@@H](C)CNc2cccc3c2cnn3-c2cccc(F)c2)c(C)c1 | 6.1 | 28 | – | – |
| Cc1cc(C)c(S(=O)(=O)NC(C)CSc2cccc3c2cnn3-c2ccc(F)cc2)c(C)c1 (racemic) | – | – | 7.7 | – |
| Cc1cc(C)c(S(=O)(=O)N[C@@H](C)CNc2cccc3c2cnn3-c2ccc(F)nc2)c(C)c1 | – | 23 | – | – |
| Cc1cc(C)c(S(=O)(=O)N[C@@H](C)CNc2cccc3c2cnn3-c2cncnc2)c(C)c1 | 6.9 | 8.1 | 5.3 | – |
| Cc1ccc(S(=O)(=O)N[C@@H](C)COc2cccc3ncccc23)c(C)c1 | – | – | 1600 | – |
| C[C@@H](COc1cccc2ncccc12)NS(=O)(=O)c1cccc(C#N)c1 | – | – | 1800 | – |
| C[C@@H](COc1cccc2ncccc12)NS(=O)(=O)c1ccccc1C#N | – | – | > 10000 | – |
| Cc1cc(C)c(S(=O)(=O)N[C@@H](C)CNc2cccc3c2cnn3-c2ccc(Cl)cc2)c(C)c1 | 3.7 | 13 | 3.4 | – |
| Cc1cc(C)c(S(=O)(=O)N[C@@H](C)CNc2cccc3nc(C)ccc23)c(C)c1 | 2200 | – | 160 | – |
| Cc1nn(C2CCCC2)c(C)c1S(=O)(=O)N[C@@H](C)CNc1cccc2c1cnn2-c1ccc(C#N)cc1 | 16 | 13 | – | – |
| Cc1ccc(-n2ncc3c(NC[C@H](C)NS(=O)(=O)c4c(C)cc(C)cc4C)cccc32)cc1 | 4.5 | 12 | – | – |
| Cc1cc(C)c(S(=O)(=O)N[C@@H](C)COc2cccc3cnccc23)c(C)c1 | – | – | 18 | logD [4]: 4.1 |
| COc1cccc(-n2ncc3c(NC[C@H](C)NS(=O)(=O)c4c(C)cc(C)cc4C)cccc32)c1 | 41 | – | – | – |
| Cc1cccc(-n2ncc3c(NC[C@H](C)NS(=O)(=O)c4c(C)cc(C)cc4C)cccc32)c1 | 6.6 | 8.8 | – | – |
| Cc1ccc(S(=O)(=O)N[C@@H](C)COc2cccc3cnccc23)c(C)c1 | – | – | 410 | – |
| Cc1cc(C)c(S(=O)(=O)N[C@H](CNc2cccc3c2cnn3-c2ccc(F)cc2)C(C)C)c(C)c1 | 12 | 2.1 | 35 | – |
| Cc1cc(C)c(S(=O)(=O)N[C@@H](C)CNc2cccc3ncccc23)c(C)c1 | 1800 | – | – | – |
